# Earlier results, collected in patent US20190282525A1, “TIOPRONIN ORAL COMPOSITION” (CRONUS RESEARCH LABS PRIVATE LIMITED, priority 2018, published 2019).
# Settings: 'might be expected'
smiles,measurement,setting,value
"CC(S)C(=O)NCC(=O)O (stereo not drawn) [tiopronin, α-mercaptopropionylglycine]",reduction in urinary cystine,tiopronin dosage of 1 g/day,250 to 350 mg/day
same,decline in urinary cystine,tiopronin dosage of 2 g/day,approximately 500 mg/day
